Our source for the Ki and EC50 values is US9556130B2, “4-oxo-3,4-dihydro-1,2,3-benzotriazine modulators of GPR139” (Takeda Pharmaceutical Company Limited, priority 2014, dated 2017).

Experiment [1] has as its target T1, human GPR139 receptor (Homo sapiens (Human), UniProt Q6DWJ6). Description: GPR139 Competition Binding.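 Also: receptor expression induced with doxycycline before membrane preparation, bound radioactivity counted by scintillation, Ki fitted with a four-parameter logistic model.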 The following applies: stably transfected CHO-TRex membranes, 1 nM 3H radioligand; read-out: GPR139 Inhibition (Ki (nM)).
Experiment [2] deals with T1, human GPR139 receptor. Description: Activation of Calcium Signaling of GPR139 In Vitro Assay.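 Also: receptor expression induced with doxycycline, calcium fluorescence read continuously for one minute after compound addition, EC50 taken from a four-parameter logistic fit.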 Format: cell-based. The settings on record: stably transfected CHO-TRex cells, Calcium 5 dye, FLIPR Tetra.

For orientation: Ki means the dissociation constant of the complex between target and ligand, obtained from inhibition or displacement. One may read the EC50 as the concentration at which the effect is half-maximal.

T1 sequence (Q6DWJ6 whole entry): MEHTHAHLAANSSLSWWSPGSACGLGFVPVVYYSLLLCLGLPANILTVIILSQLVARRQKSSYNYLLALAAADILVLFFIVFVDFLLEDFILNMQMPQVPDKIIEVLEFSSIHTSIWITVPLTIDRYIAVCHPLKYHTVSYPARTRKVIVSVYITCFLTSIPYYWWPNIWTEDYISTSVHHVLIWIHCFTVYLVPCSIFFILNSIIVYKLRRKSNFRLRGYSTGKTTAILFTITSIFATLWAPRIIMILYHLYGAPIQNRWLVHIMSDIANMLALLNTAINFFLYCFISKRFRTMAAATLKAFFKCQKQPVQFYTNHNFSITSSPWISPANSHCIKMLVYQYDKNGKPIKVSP

For the molecule `Cc1ccc([C@H](C)NC(=O)Cn2nnc3c(F)cccc3c2=O)cc1` [Example 16, (S)-2-(8-fluoro-4-oxobenzo[d][1,2,3]triazin-3(4H)-yl)-N-(1-p-tolylethyl)acetamide], the Ki at human GPR139 receptor [1] amounted to 708 nM. Further, at human GPR139 receptor [2], the EC50 stood at 9 nM.
On to `COc1ccc([C@H](C)NC(=O)Cn2nnc3c(F)cccc3c2=O)cc1` [Example 17, (S)-2-(8-fluoro-4-oxobenzo[d][1,2,3]triazin-3(4H)-yl)-N-(1-(4-methoxyphenyl)ethyl)acetamide], for which the Ki on human GPR139 receptor [1] was determined as 3600 nM. Further, on human GPR139 receptor [2], the concentration for a half-maximal effect (EC50) was 27 nM.
Taken in the same sequence, the figures for `Cc1ccc([C@H](C)NC(=O)Cn2nnc3cc(Cl)ccc3c2=O)cc1` [Example 21, (S)-2-(7-chloro-4-oxobenzo[d][1,2,3]triazin-3(4H)-yl)-N-(1-p-tolylethyl)acetamide] were 173 nM and 17 nM.
For the molecule `Cc1ccc([C@H](C)NC(=O)Cn2nnc3c(Cl)cccc3c2=O)cc1` [Example 22, (S)-2-(8-chloro-4-oxobenzo[d][1,2,3]triazin-3(4H)-yl)-N-(1-p-tolylethyl)acetamide], on human GPR139 receptor [1], the Ki was 110 nM. Also, the EC50 at human GPR139 receptor [2] worked out at 7 nM.
For `COc1ccc([C@H](C)NC(=O)Cn2nnc3c(Cl)cccc3c2=O)cc1` [Example 23, (S)-2-(8-chloro-4-oxobenzo[d][1,2,3]triazin-3(4H)-yl)-N-(1-(4-methoxyphenyl)ethyl)acetamide], the Ki on human GPR139 receptor [1] was determined as 842 nM. In addition, on human GPR139 receptor [2], the EC50 came to 13 nM.
Regarding `Cc1ccc([C@H](C)NC(=O)Cn2nnc3c(C)cccc3c2=O)cc1` [Example 24, (S)-2-(8-methyl-4-oxobenzo[d][1,2,3]triazin-3(4H)-yl)-N-(1-p-tolylethyl)acetamide], the Ki on human GPR139 receptor [1] amounted to 72 nM. Besides, the EC50 at human GPR139 receptor [2] is 9 nM.
For `COc1ccc([C@H](C)NC(=O)Cn2nnc3c(C)cccc3c2=O)cc1` [Example 25, (S)—N-(1-(4-methoxyphenyl)ethyl)-2-(8-methyl-4-oxobenzo[d][1,2,3]triazin-3 (4H)-yl)acetamide], the Ki at human GPR139 receptor [1] amounted to 526 nM. On human GPR139 receptor [2], the EC50 stood at 8 nM.
For `Cc1ccc([C@H](C)NC(=O)Cn2nnc3c(Cl)cc(Cl)cc3c2=O)cc1` [Example 26, (S)-2-(6,8-dichloro-4-oxobenzo[d][1,2,3]triazin-3(4H)-yl)-N-(1-p-tolylethyl)acetamide], in that order: 26 nM and 16 nM.
Taken in the same sequence, the figures for `COc1ccc([C@H](C)NC(=O)Cn2nnc3c(Cl)cc(Cl)cc3c2=O)cc1` [Example 27, (S)-2-(6,8-dichloro-4-oxobenzo[d][1,2,3]triazin-3(4H)-yl)-N-(1-(4-methoxyphenyl)ethyl)acetamide] were 190 nM and 7 nM.
As for `COc1ccc([C@H](C)NC(=O)Cn2nnc3ccc(C)cc3c2=O)cc1` [Example 29, (S)—N-(1-(4-methoxyphenyl)ethyl)-2-(6-methyl-4-oxobenzo[d][1,2,3]triazin-3(4H)-yl)acetamide], on human GPR139 receptor [2], the EC50 is 19 nM.
Turning to `COc1ccc([C@H](C)NC(=O)Cn2nnc3c(OC)cccc3c2=O)cc1` [Example 31, (S)-2-(8-methoxy-4-oxobenzo[d][1,2,3]triazin-3 (4H)-yl)-N-(1-(4-methoxyphenyl)ethyl)acetamide], the EC50 at human GPR139 receptor [2] was 39 nM.
For the molecule `Cc1ccc([C@H](C)NC(=O)Cn2nnc3cccc(F)c3c2=O)cc1` [Example 32, (S)-2-(5-fluoro-4-oxobenzo[d][1,2,3]triazin-3(4H)-yl)-N-(1-p-tolylethyl)acetamide], at human GPR139 receptor [1], the inhibitory constant (Ki) came to 459 nM. Also, the EC50 at human GPR139 receptor [2] was 16 nM.
In the case of `COc1ccc([C@H](C)NC(=O)Cn2nnc3cccc(F)c3c2=O)cc1` [Example 33, (S)-2-(5-fluoro-4-oxobenzo[d][1,2,3]triazin-3(4H)-yl)-N-(1-(4-methoxyphenyl)ethyl)acetamide], at human GPR139 receptor [1], the Ki is 4850 nM. For the same molecule, the EC50 on human GPR139 receptor [2] is 41 nM.
For `Cc1ccc([C@H](C)NC(=O)Cn2nnc3cc(C)ccc3c2=O)cc1` [Example 34, (S)-2-(7-methyl-4-oxobenzo[d][1,2,3]triazin-3(4H)-yl)-N-(1-p-tolylethyl)acetamide], in that order: 347 nM and 7 nM.
Taken in the same sequence, the figures for `COc1ccc([C@H](C)NC(=O)Cn2nnc3cc(C)ccc3c2=O)cc1` [Example 35, (S)—N-(1-(4-methoxyphenyl)ethyl)-2-(7-methyl-4-oxobenzo[d][1,2,3]triazin-3(4H)-yl)acetamide] were 1520 nM and 42 nM.
Take `COc1ccc([C@H](C)NC(=O)Cn2nnc3cccc(OC)c3c2=O)cc1` [Example 38, (S)-2-(5-methoxy-4-oxobenzo[d][1,2,3]triazin-3 (4H)-yl)-N-(1-(4-methoxyphenyl)ethyl)acetamide]: on human GPR139 receptor [1], the Ki stood at 619 nM. For the same molecule, at human GPR139 receptor [2], the EC50 was found to be 26 nM.
For `Cc1ccc([C@H](C)NC(=O)Cn2nnc3cccc(C)c3c2=O)cc1` [Example 39, (S)-2-(5-methyl-4-oxobenzo[d][1,2,3]triazin-3 (4H)-yl)-N-(1-p-tolylethyl)acetamide], in that order: 92 nM and 6 nM.
Taken in the same sequence, the figures for `COc1ccc([C@H](C)NC(=O)Cn2nnc3cccc(C)c3c2=O)cc1` [Example 40, (S)—N-(1-(4-methoxyphenyl)ethyl)-2-(5-methyl-4-oxobenzo[d][1,2,3]triazin-3(4H)-yl)acetamide] were 533 nM and 9 nM.
Consider `Cc1ccc([C@H](C)NC(=O)Cn2nnc3c(C)cc(C)cc3c2=O)cc1` [Example 41, (S)-2-(6,8-dimethyl-4-oxobenzo[d][1,2,3]triazin-3(4H)-yl)-N-(1-p-tolylethyl)acetamide], for which the Ki at human GPR139 receptor [1] turned out to be 10 nM. Besides, the EC50 at human GPR139 receptor [2] was 7 nM.
Turning to `COc1ccc([C@H](C)NC(=O)Cn2nnc3c(C)cc(C)cc3c2=O)cc1` [Example 42, (S)-2-(6,8-dimethyl-4-oxobenzo[d][1,2,3]triazin-3(4H)-yl)-N-(1-(4-methoxyphenyl)ethyl)acetamide], the Ki at human GPR139 receptor [1] was 179 nM. In addition, at human GPR139 receptor [2], the EC50 is 37 nM.
In the case of `C[C@H](NC(=O)Cn1nnc2ccccc2c1=O)c1ccc(F)cc1Cl` [Example 47, (S)—N-(1-(2-chloro-4-fluorophenyl)ethyl)-2-(4-oxobenzo[d][1,2,3]triazin-3(4H)-yl)acetamide], the EC50 on human GPR139 receptor [2] turned out to be 14 nM.
Regarding `C[C@H](NC(=O)Cn1nnc2ccccc2c1=O)c1ccc(F)cc1Br` [Example 48, (S)—N-(1-(2-bromo-4-fluorophenyl)ethyl)-2-(4-oxobenzo[d][1,2,3]triazin-3(4H)-yl)acetamide], at human GPR139 receptor [2], the EC50 was 1510 nM.
As for `COc1cc(C)ccc1[C@H](C)NC(=O)[C@H](C)n1nnc2ccccc2c1=O` [Example 50, (S)—N—((S)-1-(2-methoxy-4-methylphenyl)ethyl)-2-(4-oxobenzo[d][1,2,3]triazin-3(4H)-yl)propanamide], the EC50 at human GPR139 receptor [2] came to 52 nM.
For the molecule `COc1cc(C)ccc1[C@H](C)NC(=O)[C@@H](C)n1nnc2ccccc2c1=O` [Example 51, (R)—N—((S)-1-(2-methoxy-4-methylphenyl)ethyl)-2-(4-oxobenzo[d][1,2,3]triazin-3(4H)-yl)propanamide], at human GPR139 receptor [2], the concentration for a half-maximal effect (EC50) came to 16 nM.
With `Cc1ccc([C@H](C)NC(=O)Cn2nnc3ccc(F)cc3c2=O)c(C)c1` [Example 52, (S)—N-(1-(2,4-dimethylphenyl)ethyl)-2-(6-fluoro-4-oxobenzo[d][1,2,3]triazin-3(4H)-yl)acetamide], the Ki at human GPR139 receptor [1] was determined as 39 nM. Besides, the EC50 on human GPR139 receptor [2] was 24 nM.
For `C[C@H](NC(=O)Cn1nnc2ccc(F)cc2c1=O)c1ccc(OC(F)(F)F)cc1` [Example 55, (S)-2-(6-fluoro-4-oxobenzo[d][1,2,3]triazin-3(4H)-yl)-N-(1-(4-(trifluoromethoxy)phenyl)ethyl)acetamide], in that order: 42 nM and 38 nM.
On to `COc1ccc2c(=O)n(CC(=O)N[C@@H](C)c3ccc(OC(F)(F)F)cc3)nnc2c1` [Example 56, (S)-2-(7-methoxy-4-oxobenzo[d][1,2,3]triazin-3(4H)-yl)-N-(1-(4-(trifluoromethoxy)phenyl)ethyl)acetamide], for which the Ki at human GPR139 receptor [1] came out at 218 nM. Also, at human GPR139 receptor [2], the EC50 turned out to be 37 nM.
For `COc1ccc2nnn(CC(=O)N[C@@H](C)c3ccc(OC(F)(F)F)cc3)c(=O)c2c1` [Example 57, (S)-2-(6-methoxy-4-oxobenzo[d][1,2,3]triazin-3(4H)-yl)-N-(1-(4-(trifluoromethoxy)phenyl)ethyl)acetamide], the Ki at human GPR139 receptor [1] is 128 nM. The EC50 at human GPR139 receptor [2] stood at 43 nM.
As for `COc1ccc2nnn(CC(=O)N[C@@H](C)c3ccc(C(F)(F)F)cc3)c(=O)c2c1` [Example 60, (S)-2-(6-methoxy-4-oxobenzo[d][1,2,3]triazin-3(4H)-yl)-N-(1-(4-(trifluoromethyl)phenyl)ethyl)acetamide], the Ki on human GPR139 receptor [1] worked out at 115 nM. Further, at human GPR139 receptor [2], the EC50 came out at 18 nM.
As to `COc1cccc2nnn(CC(=O)N[C@@H](C)c3ccc(C(F)(F)F)cc3)c(=O)c12` [Example 61, (S)-2-(5-methoxy-4-oxobenzo[d][1,2,3]triazin-3 (4H)-yl)-N-(1-(4-(trifluoromethyl)phenyl)ethyl)acetamide], the Ki at human GPR139 receptor [1] was 26 nM. Further, the EC50 on human GPR139 receptor [2] turned out to be 15 nM.
For the molecule `COc1cccc2c(=O)n(CC(=O)N[C@@H](C)c3ccc(OC(F)(F)F)cc3)nnc12` [Example 62, (S)-2-(8-methoxy-4-oxobenzo[d][1,2,3]triazin-3(4H)-yl)-N-(1-(4-(trifluoromethoxy)phenyl)ethyl)acetamide], on human GPR139 receptor [1], the Ki is 240 nM. In addition, at human GPR139 receptor [2], the EC50 came out at 25 nM.
As for `C[C@H](NC(=O)Cn1nnc2ccc(F)cc2c1=O)c1ccc(OC(F)(F)F)cc1F` [Example 71, (S)—N-(1-(2-fluoro-4-(trifluoromethoxy)phenyl)ethyl)-2-(6-fluoro-4-oxobenzo[d][1,2,3]triazin-3(4H)-yl)acetamide], the EC50 on human GPR139 receptor [2] amounted to 49 nM.
As to `COc1ccc(CCN(C)C(=O)Cn2nnc3ccccc3c2=O)cc1` [Example 78, N-(4-methoxyphenethyl)-N-methyl-2-(4-oxobenzo[d][1,2,3]triazin-3(4H)-yl)acetamide], at human GPR139 receptor [2], the EC50 was determined as 80 nM.
